Test results reported in ChEMBL document CHEMBL3227988, “Synthesis and antiviral activities of arabinofuranosyl-5-ethylpyrimidine nucleosides. Selective antiherpes activity of 1-(beta-D-arabinofuranosyl)-5-ethyluracil” (J Med Chem, 1979).
Values after ≈ are worked out from the molar mass of the structure shown. Active and inactive are the calls of the source. No cut-off for these calls is given here.

These compounds were tested on Vaccinia virus (assay: Antiviral activity against Vaccinia virus infected in primary rabbit kidney cells assessed as inhibition of virus-induced cytopathogenicity at 200 ug/ml treated immediately after virus adsorption measured 2 to 3 days after virus infection). Settings: Orthopoxvirus vaccinia.
Format: functional, organism-based

Row | Structure (SMILES) | inhibition
1 | CCc1cn([C@H]2O[C@H](CO)[C@@H](O)[C@@H]2O)c(=O)nc1N | inactive
2 | CCc1cn([C@H]2O[C@H](CO)[C@@H](O)[C@@H]2O)c(=O)[nH]c1=O | inactive

What follows are compounds tested on Vaccinia virus (assay: Antiviral activity against Vaccinia virus infected in primary rabbit kidney cells assessed as inhibition of virus-induced cytopathogenicity treated immediately after virus adsorption measured 2 to 3 days after virus infection). Settings: Orthopoxvirus vaccinia.
Format: functional

Row | Structure (SMILES) | MIC [µg/mL]
3 | CCc1cn([C@@H]2O[C@H](CO)[C@@H](O)[C@@H]2O)c(=O)nc1N | > 200
4 | Nc1ccn([C@@H]2O[C@H](CO)[C@@H](O)[C@@H]2O)c(=O)n1 [CYTARABINE] | 0.02 (≈ 0.0822 µM)
5 | O=c1ccn([C@@H]2O[C@H](CO)[C@@H](O)[C@@H]2O)c(=O)[nH]1 [ARAURIDINE] | > 200
6 | CCc1cn([C@@H]2O[C@H](CO)[C@@H](O)[C@@H]2O)c(=O)[nH]c1=O | > 200
7 | Cc1cn([C@@H]2O[C@H](CO)[C@@H](O)[C@@H]2O)c(=O)[nH]c1=O | 4 (≈ 15.5 µM)
